Test results: paper PMC8649774, “A New Class of Cell Wall-Recycling L,D-Carboxypeptidase Determines β-Lactam Susceptibility and Morphogenesis in Acinetobacter baumannii” (mBio, 2021)

Biological target: T1, ElsL (ElsLHis) (Acinetobacter baumannii, UniProt A0ABX6CN83)
T1 construct: gene FQU82_03167; leaderless cytoplasmic YkuD-domain protein, C-terminal 6xHis (pET28b), expressed in E. coli BL21(DE3), Ni-NTA purified with TCEP
Test: UPLC-MS of reaction products
Format: biochemical
Settings: 100 mM Tris-HCl, 37 °C, 2 h, 10 ng enzyme; M4 purified from Caulobacter crescentus sacculi

`CC(=O)N[C@H]1[C@H](O[C@H]2[C@H](O[C@H](C)C(=O)N[C@@H](C)C(=O)N[C@H](CCC(=O)N[C@@H](CCC[C@@H](N)C(=O)O)C(=O)N[C@H](C)C(=O)O)C(=O)O)[C@@H](NC(C)=O)C(O)O[C@@H]2CO)O[C@H](CO)[C@@H](O)[C@@H]1O` (stereo partly shown) [M4, murotetrapeptide] was tested, and the “UPLC-MS of reaction products” value was “ElsL completely cleaved the M4 substrate to the disaccharide tripeptide (M3)”.
